Tests used:
A. Baumannii (MDR) = assay: Antimicrobial activity against susceptible and resistant strains (dilution); format: cell-based, Acinetobacter baumannii; settings: given as dilution ratio; antibiotics 1.28 mg/ml
Description: (§1) A concentrated antimicrobial compound (CAC) was prepared as an antimicrobial agent. 2.1 L of an overnight bacterial culture of G346a was centrifuged at 10,000× g for 20 min, and then subject to 0.2 μm filtration. The supernatant was subject to 10-15% TCA precipitation for 1 hour, and then centrifugation at 4,000× for 20 min. The pellet was re-suspended in 3 mL 50 mM NH4HCO3, and then neutralized with 320 μL NH4OH. The resulting concentrated antimicrobial compound (CAC) was tested for its antimicrobial activity against susceptible and resistant strains as shown in TABLE 5.

S. aureus (MRSA) = assay: as above; format: cell-based, Staphylococcus aureus; settings: given as dilution ratio; antibiotics 1.28 mg/ml
Description: as §1

Row | Structure (SMILES) | antimicrobial activity A. Baumannii (MDR) (A. Baumannii (MDR)) | antimicrobial activity S. aureus (MRSA) (S. aureus (MRSA))
1 | CC1(C)S[C@@H]2[C@H](NC(=O)[C@H](N)c3ccccc3)C(=O)N2[C@H]1C(=O)O [Ampicillin] | No Inhibition | No
2 | CC1(C)S[C@@H]2[C@H](NC(=O)C(C(=O)O)c3ccccc3)C(=O)N2[C@H]1C(=O)O (stereo partly shown) [Carbenicillin] | No Inhibition | No

Reference: US9498513B2, “Antimicrobial bacteria strains and uses thereof” (priority 2010, dated 2016)
